In the supplement of paper PMC10307832:

Key:
Assay in all cases: relative viability (nuclei count vs DMSO), 5 days (fraction); higher = more cells survive
A-427 = tested on: A-427
Summary of the method: (§1)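 Lung cancer cell lines in 1536-well plates got either a single drug or a fixed anchor-drug dose together with five library-drug doses (not always all listed) in √10 steps, by pin tool, on the day after seeding. Nuclei were counted after 5 days, and relative viability is the treated-to-vehicle ratio of nuclei counts. Values are medians of duplicate plates.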

COR-L 105 = tested on: COR-L 105
Summary of the method: as §1

ChaGo-K-1 = tested on: ChaGo-K-1
Summary of the method: as §1

EKVX = tested on: EKVX
Summary of the method: as §1

EMC-BAC-2 = tested on: EMC-BAC-2
Summary of the method: as §1

H3255 = tested on: H3255
Summary of the method: as §1

LK-2 = tested on: LK-2
Summary of the method: as §1

LOU-NH91 = tested on: LOU-NH91
Summary of the method: as §1

NCI-H1563 = tested on: NCI-H1563
Summary of the method: as §1

NCI-H1666 = tested on: NCI-H1666
Summary of the method: as §1

NCI-H1734 = tested on: NCI-H1734
Summary of the method: as §1

NCI-H1755 = tested on: NCI-H1755
Summary of the method: as §1

NCI-H1792 = tested on: NCI-H1792
Summary of the method: as §1

NCI-H1944 = tested on: NCI-H1944
Summary of the method: as §1

NCI-H1975 = tested on: NCI-H1975
Summary of the method: as §1

NCI-H2170 = tested on: NCI-H2170
Summary of the method: as §1

NCI-H23 = tested on: NCI-H23
Summary of the method: as §1

NCI-H441 = tested on: NCI-H441
Summary of the method: as §1

NCI-H520 = tested on: NCI-H520
Summary of the method: as §1

NCI-H596 = tested on: NCI-H596
Summary of the method: as §1

PC-3 [JPC-3] = tested on: PC-3 [JPC-3]
Summary of the method: as §1

SK-MES-1 = tested on: SK-MES-1
Summary of the method: as §1

SW 900 = tested on: SW 900
Summary of the method: as §1

Structure (SMILES): COc1cc(N2CCC(C(N)=O)CC2)ccc1Nc1nc(N)c(Cl)c(Nc2ccccc2S(=O)(=O)C(C)C)n1 [HG-5-88-01] + CCNC(=O)c1noc(-c2cc(C(C)C)c(O)cc2O)c1-c1ccc(CN2CCOCC2)cc1 [Luminespib] (partner 0.01 µM)
- relative viability (A-427; first compound 0.04 µM): 1.13
- relative viability (A-427; first compound 0.1265 µM): 0.916
- relative viability (A-427; first compound 0.4 µM): 0.901
- relative viability (A-427; first compound 1.265 µM): 0.769
- relative viability (A-427; first compound 4 µM): 0.754
- relative viability (COR-L 105; first compound 0.04 µM): 0.664
- relative viability (COR-L 105; first compound 0.1265 µM): 1.02
- relative viability (COR-L 105; first compound 0.4 µM): 0.851
- relative viability (COR-L 105; first compound 1.265 µM): 0.903
- relative viability (COR-L 105; first compound 4 µM): 0.702
- relative viability (ChaGo-K-1; first compound 0.04 µM): 0.572
- relative viability (ChaGo-K-1; first compound 0.1265 µM): 0.682
- relative viability (ChaGo-K-1; first compound 0.4 µM): 0.516
- relative viability (ChaGo-K-1; first compound 1.265 µM): 0.66
- relative viability (ChaGo-K-1; first compound 4 µM): 0.733
- relative viability (EKVX; first compound 0.04 µM): 0.892
- relative viability (EKVX; first compound 0.1265 µM): 0.838
- relative viability (EKVX; first compound 0.4 µM): 0.752
- relative viability (EKVX; first compound 4 µM): 0.838
- relative viability (EMC-BAC-2; first compound 0.04 µM): 1.09
- relative viability (EMC-BAC-2; first compound 0.1265 µM): 1.25
- relative viability (EMC-BAC-2; first compound 0.4 µM): 1.14
- relative viability (EMC-BAC-2; first compound 1.265 µM): 1.12
- relative viability (EMC-BAC-2; first compound 4 µM): 0.892
- relative viability (H3255; first compound 0.04 µM): 0.752
- relative viability (H3255; first compound 0.1265 µM): 0.913
- relative viability (H3255; first compound 0.4 µM): 0.818
- relative viability (H3255; first compound 4 µM): 0.847
- relative viability (LK-2; first compound 0.04 µM): 0.192
- relative viability (LK-2; first compound 0.1265 µM): 0.241
- relative viability (LK-2; first compound 0.4 µM): 0.205
- relative viability (LK-2; first compound 1.265 µM): 0.183
- relative viability (LK-2; first compound 4 µM): 0.193
- relative viability (LOU-NH91; first compound 0.04 µM): 0.337
- relative viability (LOU-NH91; first compound 0.1265 µM): 0.338
- relative viability (LOU-NH91; first compound 0.4 µM): 0.331
- relative viability (LOU-NH91; first compound 1.265 µM): 0.35
- relative viability (LOU-NH91; first compound 4 µM): 0.356
- relative viability (NCI-H1563; first compound 0.04 µM): 0.542
- relative viability (NCI-H1563; first compound 0.1265 µM): 0.539
- relative viability (NCI-H1563; first compound 0.4 µM): 0.476
- relative viability (NCI-H1563; first compound 1.265 µM): 0.485
- relative viability (NCI-H1563; first compound 4 µM): 0.519
- relative viability (NCI-H1666; first compound 0.04 µM): 1.05
- relative viability (NCI-H1666; first compound 0.1265 µM): 0.991
- relative viability (NCI-H1666; first compound 0.4 µM): 0.948
- relative viability (NCI-H1666; first compound 1.265 µM): 0.925
- relative viability (NCI-H1666; first compound 4 µM): 0.777
- relative viability (NCI-H1734; first compound 0.04 µM): 0.214
- relative viability (NCI-H1734; first compound 0.1265 µM): 0.166
- relative viability (NCI-H1734; first compound 0.4 µM): 0.171
- relative viability (NCI-H1734; first compound 1.265 µM): 0.19
- relative viability (NCI-H1734; first compound 4 µM): 0.171
- relative viability (NCI-H1755; first compound 0.04 µM): 0.401
- relative viability (NCI-H1755; first compound 0.1265 µM): 0.32
- relative viability (NCI-H1755; first compound 0.4 µM): 0.427
- relative viability (NCI-H1755; first compound 1.265 µM): 0.385
- relative viability (NCI-H1755; first compound 4 µM): 0.599
- relative viability (NCI-H1792; first compound 0.04 µM): 0.442
- relative viability (NCI-H1792; first compound 0.1265 µM): 0.609
- relative viability (NCI-H1792; first compound 0.4 µM): 0.472
- relative viability (NCI-H1792; first compound 1.265 µM): 0.325
- relative viability (NCI-H1792; first compound 4 µM): 0.552
- relative viability (NCI-H1944; first compound 0.04 µM): 0.808
- relative viability (NCI-H1944; first compound 0.1265 µM): 0.821
- relative viability (NCI-H1944; first compound 0.4 µM): 0.759
- relative viability (NCI-H1944; first compound 1.265 µM): 0.673
- relative viability (NCI-H1944; first compound 4 µM): 0.729
- relative viability (NCI-H1975; first compound 0.04 µM): 0.34
- relative viability (NCI-H1975; first compound 0.1265 µM): 0.215
- relative viability (NCI-H1975; first compound 0.4 µM): 0.35
- relative viability (NCI-H1975; first compound 1.265 µM): 0.171
- relative viability (NCI-H1975; first compound 4 µM): 0.174
- relative viability (NCI-H2170; first compound 0.04 µM): 0.749
- relative viability (NCI-H2170; first compound 0.1265 µM): 0.746
- relative viability (NCI-H2170; first compound 0.4 µM): 0.666
- relative viability (NCI-H2170; first compound 1.265 µM): 0.511
- relative viability (NCI-H2170; first compound 4 µM): 0.784
- relative viability (NCI-H23; first compound 0.04 µM): 0.215
- relative viability (NCI-H23; first compound 0.1265 µM): 0.203
- relative viability (NCI-H23; first compound 0.4 µM): 0.225
- relative viability (NCI-H23; first compound 1.265 µM): 0.187
- relative viability (NCI-H23; first compound 4 µM): 0.241
- relative viability (NCI-H441; first compound 0.04 µM): 0.284
- relative viability (NCI-H441; first compound 0.1265 µM): 0.292
- relative viability (NCI-H441; first compound 0.4 µM): 0.476
- relative viability (NCI-H441; first compound 1.265 µM): 0.248
- relative viability (NCI-H441; first compound 4 µM): 0.297
- relative viability (NCI-H520; first compound 0.04 µM): 0.186
- relative viability (NCI-H520; first compound 0.1265 µM): 0.225
- relative viability (NCI-H520; first compound 0.4 µM): 0.197
- relative viability (NCI-H520; first compound 1.265 µM): 0.202
- relative viability (NCI-H520; first compound 4 µM): 0.247
- relative viability (NCI-H596; first compound 0.04 µM): 1.18
- relative viability (NCI-H596; first compound 0.1265 µM): 1.09
- relative viability (NCI-H596; first compound 0.4 µM): 1.07
- relative viability (NCI-H596; first compound 1.265 µM): 1.17
- relative viability (NCI-H596; first compound 4 µM): 1.22
- relative viability (PC-3 [JPC-3]; first compound 0.04 µM): 0.709
- relative viability (PC-3 [JPC-3]; first compound 0.1265 µM): 0.656
- relative viability (PC-3 [JPC-3]; first compound 0.4 µM): 0.724
- relative viability (PC-3 [JPC-3]; first compound 1.265 µM): 0.744
- relative viability (PC-3 [JPC-3]; first compound 4 µM): 0.743
- relative viability (SK-MES-1; first compound 0.04 µM): 0.843
- relative viability (SK-MES-1; first compound 0.1265 µM): 0.82
- relative viability (SK-MES-1; first compound 0.4 µM): 0.823
- relative viability (SK-MES-1; first compound 1.265 µM): 0.782
- relative viability (SK-MES-1; first compound 4 µM): 0.689
- relative viability (SW 900; first compound 0.04 µM): 0.158
- relative viability (SW 900; first compound 0.1265 µM): 0.207
- relative viability (SW 900; first compound 0.4 µM): 0.185
- relative viability (SW 900; first compound 1.265 µM): 0.157
- relative viability (SW 900; first compound 4 µM): 0.186
